Consider one compound from patent publication US20250161313A1, “A METHOD FOR THE TREATMENT OF NEUROPATHY” (INSTITUT NATIONAL DE LA SANTÉ ET DE LA RECHERCHE MÉDICALE, priority 2022, published 2025).

Experiment [1] has as its system Il6, Tnf, Il1b and Ccl2 expression in DRG and spinal cord. The experiment is described as follows: mRNA levels of cytokines in spinal cord and DRG (quantitative RT-PCR), sub-chronic cisplatin model. In kind it is in vivo, mice. The following applies: 8 days after start of cisplatin treatment, vs. cisplatin. As to the method: (§1) Animal experiments were adapted from 63-64. Animal procedures were performed in 8 to 10 weeks old male C57B16/J mice (Janvier Labs except for pain experiments, Jackson lab). Mice were fed a laboratory standard diet with water and food ad libitum and were kept under constant environmental conditions with a 12-hour light-dark cycle. Istradefylline (KW-6002; Tocris) was dissolved in a carrier solution consisting in 15% DMSO, 15% cremophor (Sigma), 70% saline solution (vehicle). Cisplatin (Accord Healthcare) was dissolved in saline solution. Neuropathy resulting from of sub-chronic cisplatin was evaluated following six daily i.p. injections of cisplatin (3 mg/kg) starting at day 0 and mice were sacrificed 72h after the last injection of cisplatin (day 8). KW-6002 was administered daily i.p. from day −5 to day 7 (FIG. 2).
Lumbar dorsal root ganglion (DRG) and spinal cord tissues were quickly dissected and snap-frozen in liquid nitrogen.
For DRG and spinal cord tissues, total RNA was extracted with phenol/chloroform and subsequently precipitated in isopropanol as described previously (71).
(§2) Reverse transcription was performed on 1 μg of RNA using high-capacity cDNA reverse transcription kit (Thermo Fisher), according the manufacturer's recommendation. Real time PCR was performed on a StepOne device using Taqman Gene Expression Master Mix (Thermo Fisher), following manufacturer's recommendations. Expression levels of the following genes were evaluated using comparative CT method (2-deltaCT): Tumor Necrosis Factor alpha (Tnfa, Assay ID Mm00443258_m1), Interleukin-6 (Il6, Assay ID Mm00446190_m1), Il1b (assay ID Mm00434228_m1); chemokine (C-C motif) ligand 2 (Ccl2, assay ID Mm00441242_m1). Transcript levels of PPIA (Mm02342430_m1) were used as endogenous control.

The test system of a further experiment is mEERL cells. The experiment can be described thus: Tumor size in mEERL syngeneic in vivo tumor model. The conditions noted are these: mEERL tumor-bearing mice; cisplatin plus KW6002 vs. cisplatin; FIG. 3E. As to the method:
(§3) We used a validated murine model of HPV+ oropharyngeal squamous cell carcinoma as previously described (noncommercial) (80). This model consists of oropharyngeal epithelial cells from C57Bl/6 male mice that stably express the HPV16 viral oncogenes E6 and E7, H-Ras, and luciferase (mEERL cells). mEERL cells were grown in a T75 flask until confluent, after which cells were trypsinized and harvested, washed 3 times with sterile PBS, and resuspended in 1 mL sterile PBS to the appropriate concentration. Mice were injected s.c. into the right flank with 20 μL solution containing either 1,000,000 mEERL cells or PBS (vehicle). The day of mEERL cell injection is indicated as day −14. Tumor volume was monitored using Vernier digital calipers. When the tumor volume reached 100 mm3, the mice were randomly ascribed to 1 of the 3 experimental groups (vehicle; cisplatin; or cisplatin plus KW6002).

In experiment [2] the test system is C57B16/J mice. The experiment can be described thus: Mechanical pain sensitivity (von Frey filaments) in sub-chronic cisplatin model. Format: in vivo. The following applies: KW-6002 3 mg/kg i.p. daily day -5 to day 7; cisplatin 3 mg/kg i.p. for 6 days; vs. cisplatin; FIG. 1A. The protocol:
as §1
(§4) Mechanical pain sensitivity, a classical read out for CIPN in rodents, was assessed using von Frey filaments as previously described (65-66). Briefly, mice were placed in opaque boxes (10×10×10 cm). After a 30 min habituation period, von Frey filaments were applied, and the paw withdrawal threshold was calculated using the “up & down” method. Behavioral testing was performed by experimenter blinded to treatment and genotype.

Experiment [3] concerns C57B16/J mice. The experiment is described as follows: Mechanical sensitivity (von Frey hairs) in mEERL tumor-bearing mice. The following applies: cisplatin plus KW6002 vs. cisplatin, FIG. 3D. In kind it is in vivo. As to the method: as §3, §4
Experiment [4] has as its system KIM-1, Tnf and Il6 expression. The experiment is described as follows: Cisplatin-induced nephrotoxicity markers (mRNA) in mEERL tumor-bearing mice. In kind it is in vivo. The conditions noted are these: cisplatin plus KW6002 vs. cisplatin. As to the method: as §3, §2

Turning to `CCn1c(=O)c2c(nc(/C=C/c3ccc(OC)c(OC)c3)n2C)n(CC)c1=O` [KW-6002, 8-[(E)-2-(3,4-dimethoxyphenyl)vinyl]-1,3-diethyl-7-methyl-3,7-dihydro-1H-purine-2,6-dione], in experiment [1] (KW-6002 3 mg/kg, FIG. 1C), the “Tnf mRNA level in spinal cord” value is listed as “significantly downregulated”. Further, the “Il6 mRNA level in DRG” value in experiment [1] (KW-6002 3 mg/kg, FIG. 1D) is “significantly downregulated”. In experiment [1] (KW-6002 3 mg/kg, FIG. 1E), the “Tnf mRNA level in DRG” value was “significantly downregulated”. In addition, in experiment [1] (FIG. 1F), the “Il 1b mRNA level in DRG” value is given as “significantly reversed the upregulation”. Moreover, the “Ccl2 mRNA level in DRG” value in experiment [1] (FIG. 1G) is listed as “significantly reversed the upregulation”. Also, the “tumor control by cisplatin (absolute tumor size)” value with mEERL cells was “significantly potentiated”. Besides, in the experiment on C57B16/J mice [2], the “cisplatin-induced pain hypersensitivity (mechanical sensitivity, von Frey)” value is on record as “significantly mitigated pain hypersensitivity”. Further, the “cisplatin-induced pain hypersensitivity (von Frey)” value with C57B16/J mice [3] is on record as “alleviated”. In addition, in experiment [4] (FIG. 3A), the “indicator of renal toxicity KIM-1 (mRNA) induced by cisplatin” value is given as “limited”. In addition, the “expression of inflammatory cytokine Tnf induced by cisplatin” value in experiment [4] (FIG. 3B) is on record as “limited”. Further, in experiment [4] (FIG. 3C), the “expression of inflammatory cytokine Il6 induced by cisplatin” value was “limited”.
